Where two headings read alike, the source gives them in different places.
How the values were obtained:
[1] = tested on: Cyto c release from mitochondria; assay: Selenite-induced Cytochrome c release from mitochondria in HEK-293 cells; type: cell-based; settings: Homo sapiens, HEK293, compound 2 h then selenite 15 μM 4 h, means±SD (n=3)
Method: One of the ways cell apoptosis is activated is by release of Cytochrome c (Cyto c) from the mitochondria into cytosol. […] Cyto c released to the cytosol may be analyzed by immunoblotting using Cyto c-specific antibodies.
Cells treated with apoptosis inducers in the absence or presence of the tested compounds were harvested, washed twice with PBS, pH 7.4 and gently resuspended at 6 mg/ml in ice-cold buffer (100 mM KCl, 2.5 mM MgCl2, 250 mM sucrose, 20 mM HEPES/KOH pH 7.5, 0.2 mM EDTA, 1 mM dithiothreitol, 1 μg/ml leupeptin, […] and 0.1 mM PMSF) containing 0.025% digitonin and incubated for 10 min on ice. Samples were centrifuged at 10,000×g (relative centrifugal force—RCF) at 4° C. for 5 min to obtain supernatants (cytosolic extracts free of mitochondria) and pellet (fraction that contains mitochondria). Cytochrome c released to the cytosol was analyzed by immunoblotting using Cytochrome c-specific antibodies. Anti-VDAC1 and anti-GAPDH antibodies were used to verify that the cytosolic extracts are mitochondria-free.
c. Cytochrome c (Cyto c) release was determined as described above in Methods (Cytochrome c release from mitochondria). Briefly, to assess Cyto c release, cells were incubated on ice for 10 min with 0.025% digitonin, centrifuged, and the pellet (mitochondria—Mito) and supernatants (cytosol—Cytos) were subjected to SDS-PAGE and immunoblotting, using anti-Cyto c, antibodies. Anti-VDAC1 and anti-GAPDH antibodies were used to verify that the cytosolic extracts are mitochondria-free. The results of Cyto c release from the mitochondria as induced by selenite are presented as immunoblots, with the cytosolic and mitochondrial fractions confirmed by immunoblotting of GAPDH (glyceraldehyde-3-phosphate dehydrogenase) and VDAC1, respectively, in the FIG. 15d. The data are presented as percent inhibition. The results shown correspond to means±SD (n=3). The closed circle (●) indicates VBIT-4 (compound of Formula 1), the open circle (◯) indicates compound of Formula 10 (AKOS-022), and an open square (□) indicates VBIT-3 (compound of Formula 2).
d. […]

HEK-293 cells = assay: Selenite-induced apoptosis, annexin V-FITC/PI staining and FACS, HEK-293 cells; type: cell-based; settings: Homo sapiens, HEK293, compound 2 h then selenite 15 μM 4 h, means±SD (n=3)
Method: The ability of the compounds of general Formulae (I), (Ia), (Ib), (Ic), (Id), (II) and (IIa) to inhibit apoptosis may be analyzed by annexin-V/propidium iodide (PI) staining and flow cytometry.
Cells, e.g. HeLa cells (2×10^5), untreated or treated with apoptosis-inducing reagents, were analyzed for apoptotic cell death using PI, annexin V-FITC and flow cytometer analysis. Cells were collected (1500×g for 10 min), washed, and resuspended in 200 μl binding buffer (10 mM HEPES/NaOH, pH 7.4, 140 mM NaCl, and 2.5 mM CaCl2). Annexin V-FITC was added according to the recommended Protocol (Enzo Life Sciences, Switzerland), and the cells were incubated in the dark for 15 min. Cells were then washed with binding buffer and resuspended in 200 μl binding buffer, to which PI was added immediately before flow cytometry analysis. At least 10,000 events were collected, recorded on a dot plot, and analyzed by the FACSCalibur™ flow cytometer software (BD Biosciences, Franklin Lakes, N.J.).
b. Additionally, the inhibition of selenite-induced apoptosis by the compounds as analyzed using annexin V-FITC/PI staining and FACS, presented in the FIG. 15c.
(§1) d. IC50 values of the tested compounds were derived from the obtained data. The results shown correspond to means±SD (n=3).

[2] = Brain penetration after oral gavage, HPLC/MS of brain extracts; type: in vivo, C57BL/6 mice; settings: for concentration at 24 h: C57BL/6, mouse, brain, oral, 50 mg/kg, mouse, read-out: Compounds in brain extract
Method: C57BL/6 mice ([…]) were used. The animals received treatments with either free compounds of Formulae 1 and 10, or encapsulated compounds, prepared according to the Examples 16 and 17. Doses as indicated in the Table 4 below were administered in phosphate-buffered saline (PBS) through an oral gavage. After 12 hours and 24 hours, randomly selected mice from each group were sacrificed, their brains collected and stored in −80° C. The concentrations of the compounds in the tissues were determined by HPLC/MS analysis.
Tissue samples were homogenized in phosphate-buffered saline solution, then diluted with acetonitrile to 50% v/v, centrifuged at 10,000 g for 10 minutes, and supernatants were analyzed. The compounds concentrations in the brain extracts were determined from calibration curves. The results were the averaged from 2 mice for each treatment group/time point.

[3] = IC50 for several activities / effective range (activity not specified); settings: quoted for comparison with brain levels
VDAC1 = VDAC1 (Homo sapiens, UniProt P21796); assay: Selenite-induced VDAC1 oligomerization by EGS cross-linking and immunoblot in HEK-293 cells (Method B); type: cell-based; set-up: endogenous in cells; host or cells: HEK-293; settings: HEK-293 cells, compound 2 h then selenite 15 μM 4 h; means±SD (n=3); read-out: VDAC1 oligomerization IC50
Sequence of VDAC1 (P21796 whole entry): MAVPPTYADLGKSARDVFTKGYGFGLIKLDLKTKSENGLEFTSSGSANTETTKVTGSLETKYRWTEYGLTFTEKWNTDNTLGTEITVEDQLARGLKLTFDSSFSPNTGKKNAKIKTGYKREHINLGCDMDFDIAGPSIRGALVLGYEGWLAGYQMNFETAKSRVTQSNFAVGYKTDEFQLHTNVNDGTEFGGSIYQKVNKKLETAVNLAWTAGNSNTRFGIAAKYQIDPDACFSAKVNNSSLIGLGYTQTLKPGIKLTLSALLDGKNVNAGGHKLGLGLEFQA
Method: Appropriate test cells (2.5-3 mg/ml) in PBS, were harvested after the treatment and incubated with the cross-linking reagent EGS at a ratio of 100-300 μM for sample of 2-3 mg protein/ml concentration (pH 8.3) for 15 minutes. Protein concentration was determined according to Lowry assay. Samples (60-80 μg protein) were subjected to SDS-PAGE by a standard technique and immunoblotting was performed using anti-VDAC1 antibodies. Gels were electro-transferred onto nitrocellulose membranes for immuno-staining. The membranes were incubated with a blocking solution containing 5% non-fat dry milk and 0.1% Tween-20 in Tris-buffered saline, followed by incubation with monoclonal anti-VDAC1, anti-Cytochrome c, anti-AIF or anti-actin antibodies. Membranes were then incubated with HRP-conjugated anti-mouse or anti-rabbit IgG (1:10,000), serving as secondary antibodies. Antibody labeling was detected by chemiluminescence. To detect VDAC1 oligomers, membranes were treated with 0.1 M glycine, pH 2.0, prior to immunoblotting and washed several times with 0.1% Tween-20 in Tris-buffered saline. Quantitative analysis of immuno-reactive VDAC1 dimer, trimer and multimer bands was performed using FUSION-FX (Vilber Lourmat, France).
The closed circle (●) indicates VBIT-4 (compound of Formula 1), the open circle (◯) indicates compound of Formula 10, and an open square (□) indicates VBIT-3 (compound of Formula 2).
as §1

IC50 [1]: 1.8 ± 0.24 µM
concentration at 24 h ([2]; 50 mg/kg in PLGA nanoparticles, oral gavage): 190 ± 70 nM
concentration at 24 h ([2]; 50 mg/kg oral gavage, free compound): 120 ± 20 nM
brain penetration ([2]; given orally, in solution or encapsulated in PLGA nano-particles): reached the brain
IC50 [3]: 1 µM
IC50 (VDAC1): 1.9 µM
SMILES: O=C(CC(CO)N1CCN(c2ccc(OC(F)(F)F)cc2)CC1)Nc1ccc(Cl)cc1 (racemic) [Formula 1, N-(4-chlorophenyl)-4-hydroxy-3-(4-(4-(trifluoromethoxy)phenyl)-piperazin-1-yl)butanamide]
IC50 (HEK-293 cells): 2.9 ± 0.12 µM
